Data on one compound can be found in article PMC8910920 (International Journal of Molecular Sciences, 2022).

One experiment deals with T1, hCGRPR (Homo sapiens, UniProt O60894+Q16602).
T1 construct: host or cells: CHO
As to the kind of experiment: Radioligand binding assay, CHO cells, hCGRPR. To be noted: radioligand [125]hGCRPα. How it is done: To define whether β–lactam derivative RGM8-51 could bind to CGRPR, CB2 and M3 receptors, in vitro binding assays were performed, using CHO cell lines transfected with these receptors. The degree of binding was determined by using specific radioligands for each receptor (Table 2, footnote).
These studies were subcontracted to Eurofins-CEREP or Eurofins-PANLABS. Briefly, agonists and antagonist assays were performed in cell cultures overexpressing the corresponding channel (CHO: TRPV1 and TRPA1; HEK293: TRPV3 and ASIC3). In vitro pharmacology, cellular channel functional assays: the compound was prepared in assay buffer to the final concentration, 10 μM. […] The agonist assay was conducted on fluorimeter instruments where the test compound, vehicle controls, and reference agonist were added to the assay plate after a fluorescence baseline was established. […] For the antagonist assay, the compound was pre-incubated for five minutes at room temperature, and then challenged with the EC80 concentration of the reference agonist after establishment of a fluorescence baseline. […] Binding assay results are expressed as a percent of control specific binding. […] Aqueous solubility (μM) was determined by comparing the peak area of the principal peak in a calibration standard (200 μM) containing organic solvent (methanol/water, 60/40, v/v) with the peak area of the corresponding peak in a buffer sample. […]

Experiment [1] deals with CCI rats, cold hypersensitivity. The experiment can be described thus: CCI model of neuropathic pain, cold sensitivity (acetone test). The format is in vivo, rat. To be noted: for cold hypersensitivity in CCI rats: 30 min after injection. How it is done:
The CCI model of neuropathic pain allowed the evaluation of the effect RGM8-51 on cold, heat and mechanical sensitivity, as assayed by the acetone test, the Hargreaves test, and the automatized von Frey test, respectively. RGM8-51 was applied either locally (i.pl.; 10 µg) in the affected paw or systemically (intraperitoneally, i.p., 10 and 30 mg/kg) and the effect evaluated before (Baseline) and after CCI surgery. The nocifensive response after administration of RGM8-51 was compared with that of vehicle, while non-operated animals and the uninjured (contralateral) hind paw in CCI animals were used as controls.
Adult male Sprague-Dawley rats (weighing 200–220 g/6–8 weeks old) were used in these experiments. All experimental procedures were conducted according to the animal welfare guidelines of the European Community (European Directive 2010/63/UE) to minimize animal suffering and were approved by Universidad Complutense de Madrid and Comunidad de Madrid ethical committees on animal experimentation (PROEX 207.8/21). […]
For behavioral testing, rats were placed in individual methacrylate boxes with a wire mesh floor, and after a period of 15 min acclimatization, the cold, heat and mechanical sensitivity of the ipsilateral and contralateral paws was determined. Cold sensitivity was assessed with the acetone test. In total, 100 µL acetone were locally applied to the plantar surface of the hind paw and the duration of the subsequent nocifensive response (licking, brushing, and flinching of the paw) was determined during 60 s. Acetone application and assessment were repeated 2 times with a 5 min interval and the sum of the two values was recorded. Heat sensitivity was determined with the Hargreaves test, which uses infrared light as a heat source, with a Hargreaves apparatus (Serie 8, Model 336, IITC Life Science, Woodland Hills, CA USA). The light beam was directed to the plantar surface of the hind paw and the time from the beginning of irradiation to the appearance of first paw withdrawal movement was measured (paw withdrawal latency). […]

T1 sequence (Q16602 23-461): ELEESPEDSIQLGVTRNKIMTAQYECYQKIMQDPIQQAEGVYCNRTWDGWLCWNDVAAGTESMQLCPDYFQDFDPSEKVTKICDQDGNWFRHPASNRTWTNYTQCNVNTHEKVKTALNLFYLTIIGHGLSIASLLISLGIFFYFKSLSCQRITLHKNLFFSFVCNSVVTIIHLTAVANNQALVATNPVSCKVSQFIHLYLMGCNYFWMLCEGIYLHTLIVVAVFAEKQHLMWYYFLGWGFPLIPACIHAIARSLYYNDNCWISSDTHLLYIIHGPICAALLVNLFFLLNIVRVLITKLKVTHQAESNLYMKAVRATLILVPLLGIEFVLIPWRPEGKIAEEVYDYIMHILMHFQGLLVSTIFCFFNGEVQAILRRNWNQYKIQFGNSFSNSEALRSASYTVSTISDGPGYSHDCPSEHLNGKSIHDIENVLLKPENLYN
T1 sequence (O60894 27-148 partner): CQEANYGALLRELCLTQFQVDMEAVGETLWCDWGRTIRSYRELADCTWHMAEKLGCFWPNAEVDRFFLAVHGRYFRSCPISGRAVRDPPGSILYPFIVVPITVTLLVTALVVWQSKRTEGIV

In the case of `C[C@@H]1C(=O)N(C[C@H](Cc2ccccc2)N(Cc2ccccc2)Cc2ccccc2)[C@]1(Cc1ccccc1)C(=O)OC(C)(C)C` [RGM8-51, 4(S)-Benzyl-3S-methyl-4-(tert-butoxy)carbonyl-1-[(2′S-dibenzylamino-3′-phenyl)prop-1′-yl]-2-oxoazetidine], the “Binding hCGRPR (%), inhibition of specific binding” value on hCGRPR (10 μM) is “did not show significant affinity”. In addition, on hCGRPR (read-out: Binding hCGRPR (%), inhibition of specific binding), the inhibition at 10 µM is -1 ± 4.3%. The “cold hypersensitivity in CCI rats” value is recorded as “inhibited it dose-dependently” in experiment [1] (i.p. 10 and 30 mg/kg); “reduced cold hypersensitivity” in experiment [1] (i.pl. 10 µg). For the same compound, the “response to cold in non-operated animals (baseline) or contralateral uninjured paw” value in experiment [1] (i.pl. or i.p.) was “no effect was observed”.
